Measured values as given in patent US11510926B2, “Pharmaceutical salts/co-crystals of pentoxifylline, clonidine and linsidomine with caffeic, protocatechuic or alpha-lipoic acid an use thereof for treatment of pain” (priority 2018, dated 2022).

Experiments:
[1] = system: CPIP rat model of CRPS; assay: Mechanical sensitivity (paw withdrawal threshold, von Frey) after topical application to the ipsilateral hind paw of CPIP rats; format: in vivo; conditions: for maximum change in PWTs after topical application: dose response comparison, Lin-CafA has half of the linsidomine content
Description: Topical drugs were formulated into ointment-type preparation using a composite, water-soluble polyethylene glycol base system consisting of 40% carbowax (PEG 3350) and 60% PEG 400 (both from Sigma Aldrich). The required amounts of the active ingredients were first weighted out and then added to the already molten base and mixed well. The vehicle treatment consisted of the same water-miscible base ointment without the addition of the active drugs. The Chronic Post-ischemic Pain (CPIP) rat model of CRPS was prepared by inducing prolonged hind paw ischemia and subsequent reperfusion, as previously described by Coderre et. al., Pain, 112(1):94-105, 2004. In short, male Long Evans rats (300-400 g; Charles River, QC, Canada) were anesthetized over a 3-hour period with a bolus (55 mg/kg, intraperitoneally [i.p.]) followed by chronic i.p. infusion (0.15 mL/hour) of sodium pentobarbital (Ceva Sante Animale, Libourne, France) for 2 hours. Following induction of anesthesia, a Nitrile 70 Durometer O-ring (O-rings West, Seattle, Wash.) with an internal diameter of 5.5-mm was slipped around the rat's left hind limb proximal to the ankle joint to effect a complete blockade of arterial blood flow ([…] al., Mol Pain, 4:49, 2008). The ring was left in place for 3 hours, and the rats recovered from anesthesia 30 to 60 minutes following reperfusion. Mechanical Sensitivity Testing As a measure of mechanical sensitivity, paw withdrawal threshold (PWT), was tested on plantar surface of the ipsilateral hind paw of the CPIP rats. The rats were first habituated for 30 minutes in the testing chambers. Nylon monofilaments (von Frey hairs) with thickness designed to apply stimulus intensity ranging between 1 g and 15 g were applied to the plantar surface of the rats' hind-paw. The filaments were applied for 10 seconds or until flexion reflex occurred. PWTs were determined using Chaplan's up and down method after testing with the filaments in either ascending (after negative response) or descending (after positive response) order to find the correct response pattern which was later matched with its corresponding 50% threshold of paw withdrawal (Chaplan et al., J Neurosci Methods, 53:55-63, 1994). Time course measurements of PWTs after vehicle and drug administration were subjected to a repeated measure analysis of variance (ANOVA). Pairwise comparison was performed between PWTs obtained from drug and vehicle treatment groups measured at matching post-treatment times using Tukey's HSD test. Cumulative anti-allodynic effect measured over 180-minute time course experiments was assessed by calculating the area under the curve (AUC) of PWT elevations plotted post-topical application. Comparisons of different drug doses versus vehicle were performed using repeated measure ANOVA followed by Tukey's HSD test. Dose response curves for comparison of anti-allodynic potency were plotted on a semi-log scale with the amount of drug used per application on the X-axis and the AUC of the 180-minute PWT measured or change in PWT obtained post-drug application on the Y-axis. The linear regression of the dose-response curves was then calculated, and their difference analysed using a 1-way ANOVA. The synthesized salts/co-crystals of […], clonidine and […] were formulated into a polyethylene based topical ointment and their analgesic efficacy and potency tested and compared to their parent drugs on the CPIP rat model of CRPS.

[2] = system: CPIP rat model of CRPS; assay: Systemic absorption control: topical application to the uninjured contralateral paw, PWT of the injured CRPS paw; format: in vivo; conditions: concentration previously shown to relieve allodynia; PWT of injured paw at 30, 60, 120 and 180 minutes
Protocol: Mechanical Sensitivity Testing As a measure of mechanical sensitivity, paw withdrawal threshold (PWT), was tested on plantar surface of the ipsilateral hind paw of the CPIP rats. The rats were first habituated for 30 minutes in the testing chambers. Nylon monofilaments (von Frey hairs) with thickness designed to apply stimulus intensity ranging between 1 g and 15 g were applied to the plantar surface of the rats' hind-paw. The filaments were applied for 10 seconds or until flexion reflex occurred. PWTs were determined using Chaplan's up and down method after testing with the filaments in either ascending (after negative response) or descending (after positive response) order to find the correct response pattern which was later matched with its corresponding 50% threshold of paw withdrawal (Chaplan et al., J Neurosci Methods, 53:55-63, 1994).
To assess for any contribution systemic absorption might have to the anti-allodynic effects seen with the novel salts and co-crystals, we performed a control experiment using contralateral topical administration of the compounds. A topical preparation of the salts and co-crystals at a concentration proven to produce anti-allodynia, was applied to the uninjured contralateral paw of the CRPS rats and the effect this had on the PWT of the injured CRPS paw was measured at 30, 60, 120 and 180 minutes post topical application. The PWT obtained at 30, 60, 120 and 180 minutes post topical application were then compared with the values obtained after direct topical application on the injured CPRS paw.

O=C(O)/C=C/c1ccc(O)c(O)c1 [CafA, caffeic acid, reference compound]
anti-allodynic effects of topical administration on its own ([1]; CafA alone, FIG. 9C): no anti-allodynic effects | anti-allodynic effect upon topical application ([1]; CafA alone, three concentrations corresponding to W/W levels in the Pntx-CafA co-crystal, n=10): no anti-allodynic effect

Clc1cccc(Cl)c1NC1=NCCN1.O=C(O)CCCCC1CCSS1 [Clon-ALA, clonidine α-lipoate]
rise in PWTs compared to vehicle ([1]; 0.025% w/w, 30 minutes post-application): significant rise in PWTs | duration of elevated PWTs ([1]; 0.05% w/w, compared to 0.025% (30 minutes)): stay significantly higher for twice as long | increase in potency ([1]; Clon-ALA compared to Clon-HCl): ~2 × | leftward shift of x-intercept of the dose response curve ([1]; Clon-ALA compared to Clon-HCl, p=0.04): 0.265 log units | relief of mechanical hypersensitivity ([1]; topical Clon-ALA, different doses, n=7): dose-dependently, relieves mechanical hypersensitivity | anti-allodynic effects when applied to the contralateral (uninjured) paw [2]: no anti-allodynic effects

Nc1c[n+](N2CCOCC2)no1.O=C([O-])/C=C/c1ccc(O)c(O)c1 [Lin-CafA, linsidomine caffeate]
elevation of PWTs compared to vehicle ([1]; 1.6% w/w, 30, 60 and 120 minutes post-application): significantly elevates PWTs to non-allodynic values | increase in potency ([1]; Lin-CafA compared to Lin-Cl): ~2.5 fold | leftward shift of x-intercept of the dose response curve ([1]; Lin-CafA compared to Lin-Cl, p=0.0026): 0.3966 log units | efficacy and potency compared with linsidomine chloride ([1]; comparison of dose response curves): greater efficacy and potency | maximum change in PWTs after topical application [1]: 9.6±1.15 | anti-allodynic effect compared to vehicle ([1]; topical W/W 1.6% and 0.8%, for as long as 120 minutes post-application, n=9): significant anti-allodynic effect | anti-allodynic effects when applied to the contralateral (uninjured) paw [2]: no anti-allodynic effects

O=C(O)c1ccc(O)c(O)c1 [PCA, protocatechuic acid, reference compound]
anti-allodynic effect compared to vehicle ([1]; PCA alone, topical, at the w/w doses contained in the Pntx-PCA co-crystal): does not produce significant anti-allodynic effects

CC(=O)CCCCn1c(=O)c2c(ncn2C)n(C)c1=O.O=C(O)C=Cc1ccc(O)c(O)c1 [Pntx-CafA, pentoxifylline caffeate]
anti-allodynic potency in linear segment of dose-response curve ([1]; Pntx-CafA 2% W/W and 1% W/W compared to Pntx alone): more potent anti-allodynic effect | elevation of PWTs compared to vehicle ([1]; topical 2% W/W, 60, 120 and 180 minutes post application, n=10): significant and sustained elevation of PWTs | anti-allodynic effect at higher dose ([1]; topical 4% W/W compared to 2% W/W): did not improve

[NH-]c1c[n+](N2CCOCC2)no1 [linsidomine chloride, reference compound]
maximum change in PWTs after topical application [1]: 6.23±0.99

pentoxifylline protocatechuate [Pntx-PCA]
cumulative 3-hour anti-allodynic effect ([1]; 2.5% W/W Pntx-PCA (1.5% Pntx and 1% PCA) compared to 3.5% Pntx and 2% PCA W/W): significantly exceeds the effect achieved by double the amount of its constituent drugs | increase in potency ([1]; Pntx-PCA compared to Pntx, from shift of log-dose response curve): ~4 fold | leftward shift of the log-dose response curve ([1]; Pntx-PCA compared to Pntx, p=0.0113): 0.59 log units | anti-allodynic effect (PWT) compared to ointment base alone ([1]; topical 5 and 10% W/W, ipsilateral hind paw, 30 to 60 minutes post-application, n=8): significant anti-allodynic effects | anti-allodynic effects when applied to the contralateral (uninjured) paw [2]: no anti-allodynic effects

pentoxifylline-gallic acid [Pntx-GallA]
anti-allodynic effects of topical formulations ([1]; Pntx-GallA, CRPS rats, overall): modest anti-allodynic effects | difference in change in PWT versus respective doses of Pntx ([1]; different doses, 3 hours of testing following topical application): no significant measurable difference | improvement in PWT compared to vehicle ([1]; observed at the only dose of 4% W/W, p<0.05): significant improvement in PWT
